Source: article PMC12535076, “Neurotherapeutic effects of Vutiglabridin as a Paraoxonase-2 modulator in preclinical models of Parkinson’s disease” (Molecular Neurodegeneration, 2025)

Experiments:
[1] = test system: PON2-KD and wild-type C57BL/6 mice; assay: MPTP model in wild-type and PON2-knockdown mice; assay type: in vivo, mouse
Experimental: Animals were allowed at least 1 week of acclimatization before being subjected to the study and were housed in a regulated environment with a 12-h/12-h light/dark cycle. Food and water were provided ad libitum. The animal experiment was carried out in accordance with the National Institutes of Health Guide for the Care and Use of Laboratory Animals (NIH Publications No. 80–23; revised 1996). All procedures for handling mice were carried out in accordance with “Principles of Laboratory Animal Care” and the Animal Care and Use guidelines of Kyung Hee University, Seoul, Korea (KHSASP-20-163).
MPTP was dissolved in distilled water and injected intraperitoneally for five days from day 10 of the 21-day experiment period. Vuti or rasagiline was administered via oral gavage for 21 days. Vehicles for both Vuti and MPTP (distilled water) were administered to all mice. Mice were randomly divided for all studies. For the first set of studies shown in Fig. 3, each group consisted of 5 animals.
To determine forelimb and hindlimb motor coordination and balance, we performed the rotarod test as described previously. Also, the pole test was performed to measure bradykinesia. […] On day 20, the time spent on the rotating bar at 20 rpm, which was defined as the latent period, was recorded. Performance was recorded as 300 s if the latent period exceeded 300 s. […] The time to land down and place four fee on the floor was recorded as the time for locomotion activity (T-LA). […]
Free-floating brain sections were processed with the avidin-biotin peroxidase complex (ABC) complex (Vector Laboratories, Burlingame, CA, USA) method. […] The immunoperoxidase signals of TH was detected by incubating sections with 0.5 mg/ml 3,3′-diaminobenzidine (Sigma, St. Louis, MO, USA) in 0.1 M PB containing 0.003% H2O2. […] TH-positivity in the ST was measured by the optical density of TH-positive fibers at x40 magnification using ImageJ software (National Institutes of Health, Bethesda, MD, USA). […] (5 sections/series) were counted at x100 magnification as previously described. […]

[2] = test system: AAV-A53T injected C57BL/6J mice; assay: AAV-α-syn A53T-injected mouse model; assay type: in vivo
Experimental: Male C57BL/6J mice (7 week-age-old) were used for inducing the α-syn A53T model and treating Vuti and vehicle. All mice were maintained in a specific pathogen-free animal facility under a 12:12-h light-dark cycle (lights on at 8:00 AM) at a temperature of 21℃ and allowed ad libitum access to food and water. All experiments and animal care were performed in accordance with the guidelines of the Institutional Animal Care and Use Committee (IACUC) of IBS, Daejeon, South Korea (IBS-IBC-2022-12). Mice were anesthetized under isoflurane anesthesia (induction: 3%–4%, maintenance: 1.5%–2%) and placed into stereotaxic (RWD, China). For establishing the α-syn A53T mouse model, 2µL of AAV-CMV-A53T-Asyn or AAV-CMV-EGFP (5 × 10^12 genomic copies/mL, packaged by the IBS virus facility) was injected into the SNpc (AP − 3.2 mm, ML ± 1.3 mm, DV − 4.0 mm relative to the bregma; 0.2µL/min) bilaterally. Oral administration of 50 mg/kg Vuti (Vuti 50) or the vehicle (Veh) was started 5 weeks after the virus injection, once a day for 12 weeks. Mice were used for behavior tests and immunostaining after completing drug treatment. Vertical grid test was performed as described before. For 5 days, mice were allowed for habituation in the test room. Prior to the trial session, the mice were acclimated to the vertical grid for 2 days. For the experiment, individual mice were gently placed 3 cm from the top, facing upward, and allowed to turn around and climb down. […] Starting from the fourth week after the injection, trials are conducted at two-week intervals.
Mice were deeply anaesthetized with isoflurane and perfused transcranial with 0.9% saline ice-cold 4% paraformaldehyde (PFA). Excised brains were postfixed at 4 °C overnight and transferred to 30% sucrose for 48 h for dehydration. Coronal sections of 30 μm thickness (20 μm thickness for super-resolution imaging) were prepared in a cryostat and stored in a storage solution at 4 °C. Brain tissues were washed in PBS and incubated in a blocking solution (0.3% Triton X-100, 2% Donkey Serum, 2% Goat Serum in 0.1 M PBS). Primary antibodies were added to the blocking solution at desired dilution and the sections were incubated in a shaker at 4 °C overnight. Primary antibodies used for immunostaining were anti-TH (rabbit, 1:200, Pel-freez, P40101-150), GFAP (chicken, 1:500, Millipore, AB5541), Iba-1 (rabbit, 1:500, Wako, 019-19741), DDC (rabbit, 1:200, abCam, ab3905), GABA (guinea pig, 1:200, Millipore, AB175), anti-PON2 (rabbit, 1:200, abCam, ab183710). Unbound antibodies were washed off using PBS, followed by corresponding secondary antibody incubation (in blocking solution) for 1–2 h at room temperature. Unbound antibodies were washed with PBS and DAPI was added to PBS (1:1500 dilution). Sections were mounted with fluorescent mounting medium (Dako) and dried. A series of fluorescent images were obtained using Zeiss LSM900 confocal microscope. Super-resolution image for PON2 signals imaged by Zeiss Lattice SIM (Structure-illumination microscope) and all images were processed using ImageJ (Fiji) software.

CCOc1ccc(C2COc3c(ccc4c3CCC(C)(C)O4)C2)c(O)c1 (centres unmarked) [Vuti, Vutiglabridin]
neuroprotective effects in PON2-KD mice ([1]; PON2-KD mice, MPTP, Vuti 50 mg/kg oral for three weeks): absent | motor behavior, dopaminergic neuronal cell count and fiber density without MPTP ([1]; non-MPTP-injected wild-type mice, 50 mg/kg Vuti, vs vehicle-only): no changes | MPTP-induced damage to motor behaviors and dopaminergic neurons in wild-type mice ([1]; wild-type mice, MPTP, Vuti 50 mg/kg for three weeks): significantly attenuated | GFAP and Iba1 levels (astrocytes and microglia) ([2]; A53T mice, Vuti 50 mg/kg): normalization | amount of GABA in astrocytes ([2]; A53T mice, Vuti 50 mg/kg): decrease | intracellular α-syn levels ([2]; A53T mice, Vuti 50 mg/kg): decreased | step failure in the vertical grid test ([2]; A53T mice, Vuti 50 mg/kg oral from week 5, within 5 to 7 weeks of administration (weeks 10-12)): statistically significant improvements | DDC-positive cells in SNpc ([2]; A53T mice, Vuti 50 mg/kg, 12 weeks after AAV-A53T injection): significantly increased | TH-positive cells in SNpc ([2]; A53T mice, Vuti 50 mg/kg, 12 weeks after AAV-A53T injection, vs vehicle): significant increase | PON2 protein level ([2]; A53T mouse model and WT + Vuti group, IHC and Western blot): remained unchanged | TH+/DDC+ ratio ([2]; α-syn A53T overexpressed PD model): doubled
